Common to all, as to assay: NCI tumour cell line growth inhibition, 48 h
In experiment [1] the test system is HOP-18 NSCLC.
Experiment [2] relates to KM20L2 colon.
Experiment [3] concerns LXFL 529 NSCLC.
In experiment [4] the test system is XF 498 CNS.
Experiment [5] relates to DMS 114 small cell lung.
In experiment [6] the test system is SN12K1 renal.
Experiment [7] concerns P388 leukemia.
The subject of experiment [8] is P388/ADR leukemia.
The test system of experiment [9] is RXF-631 renal.

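The compound was tested at five concentrations on cells cultured in 96-well plates, with a 48-hour exposure period. The concentration for full growth arrest is given as TGI.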

For `CSc1nc(-c2ccccc2)nc(=[N+]2CCOCC2)s1`, the TGI in experiment [1], in experiment [2] and in experiment [3] was > 100 µM throughout.
Consider `CC(C)(C)CC(C)(C)NCC(O)COc1ccc(C(C)(C)c2ccc(OCC(O)CNC(C)(C)CC(C)(C)C)cc2)cc1` (centres undefined), for which the TGI in experiment [4] stood at 3.02 µM; in [5], 3.21 µM; in [2], 2.88 µM; in [3], 1.3 µM.
As to `O=S(=O)(O)c1cc(N=[N+]([O-])c2ccc(N=Nc3ccccc3)cc2S(=O)(=O)O)ccc1/C=C/c1ccc(N=[N+]([O-])c2ccc(N=Nc3ccccc3)cc2S(=O)(=O)O)cc1S(=O)(=O)O`, the TGI is > 31.6 µM in experiment [6]; > 100 µM in experiment [1]; > 100 µM in experiment [4]; > 100 µM in [5]; > 100 µM in experiment [7].
In the case of `O=[N+]([O-])c1ccc(Nc2cccc3c2[nH]c2c(-c4ccccc4)nccc23)c([N+](=O)[O-])c1`, the TGI in experiment [1] is > 100 µM; in experiment [4] it was > 100 µM; in [5], > 100 µM; in [8], > 100 µM; in [2] it was > 100 µM; in experiment [7] it was > 69.2 µM.
With `COc1ccc(C2=NN(c3nsc4ccccc34)C(=O)CC2)cc1`, the TGI in experiment [1], in experiment [5], in [2] and in [3] was > 100 µM each time.
On to `Cc1cc(OCC(O)CO)ccc1Cl` (centres undefined), for which the TGI in experiment [1], in experiment [9], in [5], in [2] and in experiment [3] was > 100 µM each time.
As for `Cc1ccc(S(=O)(=O)N/N=C\c2c3ccccc3[n+](C)c3ccccc23)cc1`, the TGI in experiment [5] and in experiment [2] was > 100 µM throughout.

The values are drawn from PubChem BioAssay (NCI).
